Experimental data taken from patent publication US8519007B2, “Use certain diterpene compounds in the treatment of androgen receptor-associated diseases” (Academia Sinica, priority 2008, dated 2013).

What was measured:
22Rv1 cells [1] = experiment: Morphology of treated cells; details: 22Rv1, 10 to 50 μM, 48 h
Source text: (§2) The long-term effect of HDHS on the malignant growth of AR-dependent (22Rv1, and LNCaP) and AR-independent (PC-3) PCa cells was examined by colony-forming growth assay.

LNCaP cells [2] = experiment: Western blot of G1-associated cyclins, CDKs, CDK inhibitors and Rb phosphorylation; assay type: cell-based, human; details: 24 h
Source text: (§1) The molecular mechanisms for HDHS-induced G0-G1 cell cycle arrest were further assessed by the expression of the cyclins and CDKs that operate in the G1 phase in PCa cells (Malumbres M et al., Nat Rev Cancer 2001; 1:222-31; Massague J. Nature 2004; 432:298-306).

PC-3 cells [3] = experiment: as above; assay type: cell-based, human; details: PC-3, compared with LNCaP
Source text: as §1

[4] = target: T1, AR-LBD interaction with the full-length AR (Homo sapiens, UniProt P10275); experiment: Two-hybrid interaction assay in PC-3 cells; assay type: cell-based; details: 20 h
T1 construct: expressed in transfected cells; host or cells: PC-3
T1 sequence (P10275 669-900 limits assumed): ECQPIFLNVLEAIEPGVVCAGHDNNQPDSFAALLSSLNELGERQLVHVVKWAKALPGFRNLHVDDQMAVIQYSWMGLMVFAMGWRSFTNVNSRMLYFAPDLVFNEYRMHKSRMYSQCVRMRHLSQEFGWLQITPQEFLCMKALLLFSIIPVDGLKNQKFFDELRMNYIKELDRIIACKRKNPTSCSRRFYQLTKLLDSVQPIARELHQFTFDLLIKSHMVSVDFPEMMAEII
Method: Second, the AR-LBD interaction with the full-length AR can be detected by a two-hybrid interaction assay in PC-3 cells through transfection of GBD-AR-LBD and AR fused with the VP16 activation domain (AR-VP16). […] The transfected cells were treated with vehicle or various compounds for another 20 h. Luciferase activity was measured using the luciferase reporter gene assay system (Promega, Madison, Wis.) and normalized against respective Renilla luciferase values.

LNCaP cells [5] = experiment: Morphology of treated cells; details: 10 to 50 μM, 48 h
Source text: as §2

22Rv1 cells [6] = experiment: Cell cycle distribution by propidium iodide flow cytometry; assay type: cell-based, human; details: 48 h
Method: The cell cycle of treated cells was examined by flow cytometry after cellular staining with propidium iodide. 5×10^5 cells were seeded into 6-well multidishes with 10% FBS culture medium for 48 h. […] Cells were trypsinized thereafter, washed twice with cold PBS, and centrifuged. The pellet was suspended in cold PBS and 1 mL of 70% ethanol at 4° C. overnight, washed twice with cold PBS, and digested with RNase (100 μg/mL final concentration) and stained with propidium iodide (10 μg/mL final concentration) for 30 min and analyzed by flow cytometry (EPICS XL-MCL, Beckman Coulter, Inc., Fullerton, Calif.).

AR = target: T2, AR (Homo sapiens, UniProt P10275, T878A); experiment: AR nuclear translocation by confocal immunofluorescence in LNCaP cells; assay type: cell-based; details: steroid-deprived, 5 to 10 μM, 1 h
T2 construct: endogenous in cells; host or cells: LNCaP
T2 sequence (P10275 1-920 T878A): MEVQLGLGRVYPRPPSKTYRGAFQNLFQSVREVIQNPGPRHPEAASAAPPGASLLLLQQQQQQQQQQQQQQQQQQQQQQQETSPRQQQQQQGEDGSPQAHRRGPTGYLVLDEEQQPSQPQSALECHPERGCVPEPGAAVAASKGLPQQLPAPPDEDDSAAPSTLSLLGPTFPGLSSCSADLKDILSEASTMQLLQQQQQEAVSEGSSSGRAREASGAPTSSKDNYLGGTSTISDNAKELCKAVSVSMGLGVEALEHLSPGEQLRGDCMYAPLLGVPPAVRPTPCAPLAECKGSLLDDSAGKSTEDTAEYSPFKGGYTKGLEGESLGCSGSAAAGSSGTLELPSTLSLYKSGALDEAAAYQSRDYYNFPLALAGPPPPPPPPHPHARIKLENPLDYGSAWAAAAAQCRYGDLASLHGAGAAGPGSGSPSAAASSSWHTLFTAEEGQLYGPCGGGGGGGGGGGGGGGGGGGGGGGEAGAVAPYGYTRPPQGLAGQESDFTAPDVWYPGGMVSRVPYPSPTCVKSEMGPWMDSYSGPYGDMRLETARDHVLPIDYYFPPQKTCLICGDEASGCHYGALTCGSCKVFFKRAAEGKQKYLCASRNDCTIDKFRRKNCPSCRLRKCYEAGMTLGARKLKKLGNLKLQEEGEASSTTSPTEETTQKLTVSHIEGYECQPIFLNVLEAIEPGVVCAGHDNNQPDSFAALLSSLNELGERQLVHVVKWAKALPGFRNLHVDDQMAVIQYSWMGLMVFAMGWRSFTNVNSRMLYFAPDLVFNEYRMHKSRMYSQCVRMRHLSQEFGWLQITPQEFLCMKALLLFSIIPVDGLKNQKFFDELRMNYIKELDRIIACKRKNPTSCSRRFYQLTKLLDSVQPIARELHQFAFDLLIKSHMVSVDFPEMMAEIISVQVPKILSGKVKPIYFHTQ
Method: Specifically, LNCaP cells were grown in medium containing 5% charcoal-dextran stripped FBS on 12-mm coverslips for 48 h and then treated with vehicle or various compound treatments for another 1 h. Cells were fixed with 4% (v/v) paraformaldehyde on ice for 15 min, permeabilized with 0.2% (v/v) Triton X-100/PBS, and then washed with PBS three times. […] The samples were washed again and mounted in mounting medium (Vector, Burlingame, Calif.). The cellular location of AR was visualized by confocal microscopy (LSM 510 META, Carl Zeiss GmbH, Jena, Germany) and analyzed using the manufacturer's software.

AR-LBD = target: T3, AR-LBD (Homo sapiens, UniProt P10275); experiment: One-hybrid assay (GBD-AR-LBD) in 22Rv1 cells; assay type: cell-based; details: 10 nM DHT, 20 h
T3 construct: expressed in transfected cells; host or cells: 22Rv1
T3 sequence (P10275 669-900 limits assumed): T1 sequence (P10275 669-900 limits assumed)
Method: The molecular mechanism whereby HDHS represses AR activity was analyzed by the following experiments. […] The transfected cells were treated with vehicle or various compounds for another 20 h.

PC-3 cells [7] = experiment: Morphology of treated cells; details: PC-3, up to 50 μM
Source text: as §2

NIH-3T3 cells = experiment: MTT cell viability; assay type: cell-based; details: NIH-3T3, concentrations above 10 μM, 48 h, versus LNCaP and 22Rv1
Method: The effects of HDHS on cell viability in various PCa cell lines including androgen-dependent LNCaP, androgen-responsive 22Rv1 cells, and androgen-independent PC-3 cells were tested and compared with untransformed fibroblast NIH-3T3 cells. PCa or NIH-3T3 cells (1×10^4 cells) were seeded into 96-well microtiter plates with 10% FBS culture medium. After 24 h, cells were incubated in 10% FBS medium containing different concentrations of HDHS or equivalent amounts of vehicle alone as control for 48 h. Cell viability was then determined by MTT assay, which quantitatively measures the metabolic activity of living cells.

CC(C)c1cc2c(cc1O)[C@@]1(C)CCCC(C)(C)C1=C(O)C2=O [Compound 2, 6,12-dihydroxyabieta-5,8,11,13-tetraen-7-one]
morphology of treated cells (22Rv1 cells [1]): cell rounding and surface blebbing | protein expression of CDK inhibitors p21 and p27 (LNCaP cells [2]; 10 μM): increased | cyclins D1 and E protein (LNCaP cells [2]): concentration-dependent decrease | phosphorylation of Rb (LNCaP cells [2]): markedly decreased | protein levels of CDK4, CDK6, and CDK2 (LNCaP cells [2]): decreased | changes in cyclins, CDKs, p21, p27 and Rb phosphorylation (PC-3 cells [3]): at a lower magnitude than in LNCaP cells | effect on DHT-induced two-hybrid interaction [4]: competitively inhibited | morphology of treated cells (LNCaP cells [5]): cell rounding and surface blebbing | G0-G1 phase cell population (22Rv1 cells [6]; 22Rv1, 2.5 μM): 54.5 ± 2.5 % | G2-M phase cell population (22Rv1 cells [6]; 22Rv1, 2.5 μM): 24.8 ± 2.4 % | S phase cell population (22Rv1 cells [6]; 22Rv1, 2.5 μM): 11.2 ± 1.9 % | Sub-G1 phase cell population (22Rv1 cells [6]; 22Rv1, 2.5 μM): 2.2 ± 0.8 % | G0-G1 phase cell population (22Rv1 cells [6]; 22Rv1, 5 μM): 57.9 ± 1.9 % | G2-M phase cell population (22Rv1 cells [6]; 22Rv1, 5 μM): 23.7 ± 2.7 % | S phase cell population (22Rv1 cells [6]; 22Rv1, 5 μM): 8.0 ± 1.4 % | Sub-G1 phase cell population (22Rv1 cells [6]; 22Rv1, 5 μM): 3.8 ± 0.9 % | G0-G1 phase cell population (22Rv1 cells [6]; 22Rv1, 10 μM): 48.4 ± 2.9 % | G2-M phase cell population (22Rv1 cells [6]; 22Rv1, 10 μM): 24.5 ± 2.0 % | S phase cell population (22Rv1 cells [6]; 22Rv1, 10 μM): 5.7 ± 2.2 % | Sub-G1 phase cell population (22Rv1 cells [6]; 22Rv1, 10 μM): 14.4 ± 3.7 % | AR nuclear localization (AR): significant AR accumulation in the nucleus | effect on DHT-induction of AR-LBD (one-hybrid luciferase) (AR-LBD): inhibited the AR-LBD dose-dependently | morphology of treated cells (PC-3 cells [7]): only cell rounding | cell viability (MTT) (NIH-3T3 cells): far less pronounced
